Converted amounts (≈) assume the structure as drawn.

The conditions of this series: buffer; pH 7.4; 200.0 µM.
By kinetic solubility is commonly meant the concentration staying in solution when a stock, usually in DMSO, is diluted into the medium. In the case of `Cc1ccc(CNc2cc(C(=O)O)ccc2Cl)s1`, the kinetic solubility is more than 42.3 µg/mL.
To `O=C(O)c1cc(-c2ccc(Cl)s2)nc2ccccc12` belongs 41.5 µg/mL (≈ 143 µM); to `CC(C)N(Cc1ccccc1)C(=O)COC(=O)c1c(F)cccc1F`, more than 52.1 µg/mL.
In turn, `O=C(CN1CCN(c2ccc(F)cc2)CC1)NCc1ccc(Cl)cc1` came in with a kinetic solubility of 51.2 µg/mL (≈ 141 µM).
To `Cc1cc(C)c(S(=O)(=O)NC2CC(C)(C)NC(C)(C)C2)cc1C` belongs 33.5 µg/mL (≈ 99 µM); to `Cc1nc(N)c(C#N)c(-c2cccnc2)c1-c1ccccc1`, 0.6 µg/mL (≈ 2.1 µM).
The result for `O=C(COc1ccccc1)NC1CCS(=O)(=O)C1` (stereo not given) reads more than 40.4 µg/mL.
The result for `CCSCc1nnc(SCC(=O)Nc2nccs2)n1CC` reads more than 51.5 µg/mL.
`Cc1ccccc1/C=C/C12NC(=O)CN1c1ccccc1C2(C)C` (stereo not given) gave a solubility (kinetic) of 1 µg/mL (≈ 3.14 µM).
To `O=C1NC2=C(C(=O)CCC2)C(c2ccccc2)N1` (stereo not given) belongs more than 36.3 µg/mL.
Regarding `Cc1ccc2c(CN3CCCCC3)cc(=O)oc2c1C`, the kinetic solubility was 22.6 µg/mL (≈ 83.3 µM).
For the compound `Cc1cccc(NC(=O)C(C)SCc2ccccc2)c1` (stereo not given), the solubility (kinetic) turned out to be 27.9 µg/mL (≈ 97.8 µM).
Consider `COc1ccc(/C=N/NC(=O)c2cc[n+]([O-])cc2)cc1`, for which the kinetic solubility was more than 40.7 µg/mL.
For the compound `CC(NC1=NCCS1)c1ccccc1` (stereo not given), the solubility (kinetic) turned out to be 30.4 µg/mL (≈ 147 µM).
The result for `CCC(C)N(C)C1CCN(C(=S)Nc2ccc(OC)cc2)CC1` (stereo not given) reads more than 50.3 µg/mL; that for `CCOc1ncccc1C(=O)OC(C)C(=O)Nc1ccc(CC)cc1` (stereo not given), 7.1 µg/mL (≈ 20.7 µM); that for `CC(C)Oc1ccc(C2CC(=O)N(C)C2=O)cc1` (stereo not given), more than 37.1 µg/mL.
To `CC(C)CCNC(=O)NC(=O)CSc1ncccn1` belongs 28.9 µg/mL (≈ 102 µM); to `Cc1ccnc(NC(=O)COc2ccc(Cl)cc2)n1`, 9.7 µg/mL (≈ 34.9 µM); to `Cc1nn(C)c(Oc2ccccc2)c1CCNC(=O)CCl`, more than 46.2 µg/mL.
`COc1ccc(CNC(=O)COC(=O)c2cc(C)nc3ccccc23)cc1` came in with a solubility (kinetic) of 18.3 µg/mL (≈ 50.2 µM).
`CC(C)Sc1ccccc1C(=O)Nc1ccc2c(c1)n(C)c(=O)n2C` gave a kinetic solubility of more than 53.3 µg/mL.
To `Cc1ccccc1C(=O)OCC(=O)NCC1COc2ccccc2O1` (stereo not given) belongs 40.9 µg/mL (≈ 120 µM).
The result for `COc1cc(N)c(Cl)cc1C(=O)OCC(=O)NCC1CCCCC1` reads 4.8 µg/mL (≈ 13.5 µM); that for `O=C(N/C(=C/c1cccnc1)C(=O)N1CCOCC1)c1ccccc1Cl`, more than 55.8 µg/mL; that for `Cc1ccccc1N=C1NC(=O)C(CO)(CO)S1`, more than 39.9 µg/mL.
In turn, `CCn1c(/C=C/c2ccc(O)c(O)c2)nc2ccccc2c1=O` had a kinetic solubility of 27 µg/mL (≈ 87.6 µM).
The result for `Cc1ccc(-c2csc(NC(=O)CN3C(=O)CCC3=O)n2)cc1` reads 0.5 µg/mL (≈ 1.52 µM); that for `O=C(COc1ccc(Cl)cc1Cl)NCC1(N2CCOCC2)CCCCC1`, 1.9 µg/mL (≈ 4.73 µM).
To `CCC(=O)NCCNc1nc2cc(C)cc(C)c2cc1C#N` belongs 3.7 µg/mL (≈ 12.5 µM); to `COc1ccc(S(=O)(=O)NC(C)C(=O)NC2CC2)cc1C` (stereo not given), more than 46.9 µg/mL.
`NCCNC(=O)c1c(NC(=O)c2ccccc2)sc2c1CCCC2` registered a solubility (kinetic) of 41.1 µg/mL (≈ 120 µM).
Regarding `Cn1c(=O)[nH]c(=O)c2c1nc(NCCN)n2CCOc1ccccc1`, the solubility (kinetic) came to 49.1 µg/mL (≈ 143 µM).
To `O=C(NC1CCS(=O)(=O)C1)c1sc2ccccc2c1Cl` (stereo not given) belongs 12.2 µg/mL (≈ 37 µM); to `CN(C)/C=N/c1ncc(C(=O)c2ccc(-c3ccccc3)cc2)s1`, 1.1 µg/mL (≈ 3.28 µM); to `COc1cc(C(=O)N2C(=O)CCC2=O)cc(OC)c1OC`, 35.4 µg/mL (≈ 121 µM).
The result for `O=C(O)CNS(=O)(=O)c1ccc2[nH]c(=O)c(=O)[nH]c2c1` reads more than 44.9 µg/mL; that for `COc1ccccc1COC(=O)CN1C(=O)NC2(CCCCC2C)C1=O` (stereo not given), more than 54.1 µg/mL; that for `CCN(C(=O)Cn1c(=O)oc2ccccc21)c1cccc(C)c1`, more than 46.6 µg/mL.
To `Cc1cc(Cl)c2oc(C(=O)N3CCC(O)(c4ccccc4)CC3)c(C)c2c1` belongs 2.2 µg/mL (≈ 5.73 µM).
The compound `COc1cccc(NC(=O)CN2C(=O)NC(Cc3c[nH]c4ccccc34)C2=O)c1` (stereo not given) yielded a solubility (kinetic) of 22 µg/mL (≈ 56.1 µM).
To `CS(=O)(=O)Nc1ccc(S(=O)(=O)N2CCCCCC2)cc1` belongs 48.3 µg/mL (≈ 145 µM).
With `COc1ccc(NC(=O)CSCCc2ccccn2)cc1OC`, the solubility (kinetic) came to 48.7 µg/mL (≈ 146 µM).
With `Fc1cccc(NC(=S)N2CCc3ccccc32)c1`, the solubility (kinetic) is 6.3 µg/mL (≈ 23.1 µM).
`O=C(NCC(=O)N1CCCC1)c1ccc(Cl)cc1` showed a solubility (kinetic) of more than 40 µg/mL.
Regarding `Cc1ccc(C(=O)N/N=C\c2ccccn2)cn1`, the kinetic solubility is more than 36 µg/mL.
To `CCNC(=S)N1CCC(C(N)=O)CC1` belongs more than 32.3 µg/mL.
In the case of `CC(C)c1ccc[n+](-c2nc([O-])sc2C=O)c1`, the kinetic solubility was 27.4 µg/mL (≈ 110 µM).
To `CCOc1cc2c(C#N)c(N3CCNCC3)nc(N)c2c(N)n1` belongs 1.3 µg/mL (≈ 4.15 µM); to `CC(C)(C)CC(=O)Nc1cc2c3c(c1)CCN3C(=O)CC2`, more than 43 µg/mL; to `Fc1cccc(CN2CCN(c3ccc(Cl)cc3)CC2)c1`, 4.1 µg/mL (≈ 13.5 µM).
To `CC1=C(C(=O)OC(C)C)C(c2ccc3c(c2)OCO3)NC(=O)N1` (stereo not given) belongs 47.3 µg/mL (≈ 149 µM).
The result for `COc1ccc2c(c1)C(=O)Nc1cc(Cl)ccc1N2` reads 15.6 µg/mL (≈ 56.8 µM); that for `Nc1cccc(-c2cn3cccnc3n2)c1`, 25.9 µg/mL (≈ 123 µM); that for `COc1cccc(C(=O)CC(=O)C(=O)Nc2ccc(C)cc2Cl)c1`, 8.1 µg/mL (≈ 23.4 µM).
In the case of `Cc1ccc(Nc2nc(C)c3c(n2)CC(C)CC3=O)c(C)c1` (stereo not given), the solubility (kinetic) amounted to 1.7 µg/mL (≈ 5.76 µM).
To `COc1ccccc1CNC(=O)CCNS(=O)(=O)/C=C/c1ccc(C)cc1` belongs 57.8 µg/mL (≈ 149 µM); to `CC1CCN(CC(=O)N2CCc3ccccc32)CC1`, 36.9 µg/mL (≈ 143 µM); to `CCOC(=O)Cc1csc(NC(=O)CN2CCCCC2)n1`, 41.6 µg/mL (≈ 134 µM).
The result for `CC(NC1c2ccccc2-c2ccccc21)c1ccccc1` (stereo not given) reads less than 0.6 µg/mL; that for `COc1ccc(/C=C(\C#N)C(=O)OC2CCOC2=O)cc1` (stereo not given), more than 43.1 µg/mL.
The result for `Brc1ccc(COn2ccnc2)cc1` reads more than 38 µg/mL; that for `CN(C)CCOC1c2ccccc2CCc2ccc3ccccc3c21.O=C(O)C(=O)O` (stereo not given), more than 63.2 µg/mL; that for `CCOC(=O)c1sc(NC(=O)C2CC(=O)N(c3ccc(OCC)cc3)C2)nc1C` (stereo not given), 9.9 µg/mL (≈ 23.7 µM).
`Cc1ccnc(N(C(=O)Nc2ccccc2)C2=NCC(C)(C)S2)c1` came in with a kinetic solubility of 25.3 µg/mL (≈ 74.3 µM). This solubility kinetic is about 2.6-fold higher than that of the compound before.
In turn, `O=C(O)CSC(=S)N1CC2CC(C1)c1cccc(=O)n1C2` (stereo not given) returned a solubility (kinetic) of more than 48.7 µg/mL.
The result for `COc1ccc(Cc2c(O)nc(SCC(C)C)[nH]c2=O)cc1` reads 47.2 µg/mL (≈ 147 µM).
To `NCC(c1ccccc1Cl)c1c[nH]c2ccccc12` (stereo not given) belongs more than 40.6 µg/mL; to `Cc1cccc(N2CCN(C(=S)NC3CCCCC3)CC2)c1C`, less than 0.2 µg/mL.
With `COC(=O)c1scc(C)c1NC(=O)c1ccc(Cl)cc1`, the solubility (kinetic) amounted to 21.3 µg/mL (≈ 68.8 µM).
Turning to `COc1cc2ccccc2cc1C(=O)N1CCN(C(C)=O)CC1`, the solubility (kinetic) worked out at 46.6 µg/mL (≈ 149 µM).
The result for `Cc1nc(N)c(Cc2ccccc2F)c(N)n1` reads more than 34.8 µg/mL.
Consider `COc1ccc(CNC(=O)COC(=O)c2ccc3ccccc3n2)cc1`, for which the solubility (kinetic) was 16.3 µg/mL (≈ 46.5 µM).
The result for `S=C(Nc1nc2c(s1)CCCC2)NC1CC1` reads 5.7 µg/mL (≈ 22.5 µM); that for `Cc1ccc(CNC(=O)c2cc3ccccc3oc2=O)cc1`, 1.2 µg/mL (≈ 4.09 µM).

For the origin of these results see PubChem BioAssay AID1996.
